Results reported in patent EP4702986A1, “POLYPEPTIDE AND USE THEREOF” (Biocells (Beijing) Biotech Co., Ltd., priority 2023, dated 2024).
Numbered stars: 1 amine (or outer) side, 2 acyl side, 3 side chain; on linkers, the order of the positions; unused ones are H or OH. Side chains are listed from the residue outwards. Peptide text beside a SMILES is read from it. * marks the point of attachment. C18 diacid = O=C(O)CCCCCCCCCCCCCCCCC(=O)*; γGlu = O=C(O)[C@H](CCC(=O)[*:2])N[*:1]; Fumaroyl = O=C(O)/C=C/C(=O)*; Lauroyl = CCCCCCCCCCCC(=O)*; AEEA = NCCOCCOCC(=O)O

Experiments:
BDNF = BDNF protein expression in infarcted brain tissue of tMCAO mice (ELISA); format: in vivo, C57/6J mice; conditions: for BDNF: 3 times (D1, D3, D6), infarcted brain tissue after D14; for expression level of BDNF protein compared with the normal saline group: tMCAO mice
Experimental: Fifty-one male C57/6J mice, aged 10-12 weeks, weighing 25-30g, were housed for at least 2 days prior to the experiment to adapt to the environment (SPF Biotech). A mouse model of tMCAO was established. The mice were anesthetized with isoflurane. Their body temperature was controlled by a thermostatic blanket and monitored and maintained at 37±0.5°C. A middle incision was made in the skin on the mouse skull, the skin was pulled outward, and a bendable microneedle tip was fixed to the surface of the left parietal bone of the mouse skull. A middle incision on the neck was made to separate the right common carotid artery (CCA), external carotid artery (ECA) and internal carotid artery (ICA). According to the method of Longa (Longa et al., 1989), a silicone rubber-coated suture (RWD Life Science, suture end diameter: 0.22 mm-0.23 mm, MSMC23B120PK50) was introduced through an external carotid artery incision surgery and was slowly advanced through the internal carotid artery towards the origin of the middle cerebral artery. To ensure a sustained and successful occlusion of the middle cerebral artery, we monitored local cerebral blood flow of all stroke animals with a laser speckle flowmeter (generally, the blood flow can be reduced by 40-60% after stabilized). The suture was removed 45 min after the insertion for modeling, and the incision was sutured. Afterward, 1 mL of 37°C warm saline was injected subcutaneously, and the mice were placed on a heating pad until recovery. To alleviate pain, the mice were injected subcutaneously with Tilidine after awakening from anesthesia.
Successfully modeled C57 tMCAO mice were randomly assigned into three groups: a normal saline group, a 30µg/Kg BX229-Na administration group, and a 100µg/Kg BX229-Na administration group. Each group was administered once subcutaneously in the neck 4.5 hours after occlusion (D1), and was administered once more at the same sites and at the same time points on D3 and D6. A sham group included 6 animals. 2 mL/kg was administrated subcutaneously in the neck. Garcia JH scoring was made on D7 and D14 after administration. After the completion of the scoring on D14, the mice were euthanized and harvested for infarcted brain tissues, to extract total proteins. Changes in protein markers VEGF-A and BDNF in each experimental group were detected by ELISA. Table 19: Experimental Grouping and Dosing Regimen

rat model of pMACO = experiment: Rotarod test in rat model of pMACO; format: in vivo, SD rats; conditions: IRL1620 5 µg/Kg, BX34 7 µg/Kg, BX48 5 µg/Kg, administered 3 times (2, 4, 6 hours after modeling), n=10
Description: Male SD rats weighing 280-300 g were used and acclimated for at least 3 days. Focal cerebral ischemia was induced by middle cerebral artery occlusion with a suture method under isoflurane anesthesia. The animals were placed in a secure supine position, and a midline incision was made to expose the right common carotid artery, external carotid artery, and internal carotid artery. A 4.0 monofilament nylon suture was advanced from the external carotid artery toward the internal carotid artery lumen until resistance was felt ( ~ 20 mm), indicating middle cerebral artery occlusion. The nylon filament was allowed to stay in place to create a permanent model of focal cerebral ischemia. Successfully modeled rats were randomly assigned to four groups: a solvent (normal saline) group (n=10), a 7 µg/Kg BX-34 group (n=10), a 5 µg/Kg BX-48 group (n=10), and a 5 µg/Kg IRL1620 group (n=10). Each group was administered once at 2 hours, 4 hours, and 6 hours, respectively, after modeling, for a total of three administrations. Grip strength was measured before administration and at 24 hours and on D3 and D7 after administration. A rotarod test and a foot fault test were performed before administration and at 24 hours and day 7 after administration. During the rotarod test, time and distance were recorded, and ratios of the measurement at 24 hours and the measurement at D7 to the pretest measurement were used as analysis indicators. The specific method for the foot fault test was as follows. The rats were placed on an elevated grid floor (29×29 cm, grid opening: 3 cm^2) for 2 minutes, and the number of foot faults (when a forelimb fell through the grid) and the total steps were recorded. % Foot fault = (the number of forelimb faults/the total number of forelimb steps) × 100.

| SMILES | BDNF (BDNF; 30 µg/Kg subcutaneously) [pg/mL] | BDNF (BDNF; 100 µg/Kg subcutaneously) [pg/mL] | expression level of BDNF protein compared with the normal saline group (BDNF; 30µg/Kg three-dose group) | expression level of BDNF protein compared with the normal saline group (BDNF; 100µg/Kg three-dose group) | Rotarod Test 7D/pretest (%) Distance, m (rat model of pMACO; 7D relative to pretest) | Rotarod Test 7D/pretest (%) Time, s (rat model of pMACO; 7D relative to pretest) | Rotarod Test 7D/pretest (%) Velocity (rat model of pMACO; 7D relative to pretest) | Rotarod Test 24h/pretest (%) Distance, m (rat model of pMACO; 24h relative to pretest) | Rotarod Test 24h/pretest (%) Time, s (rat model of pMACO; 24h relative to pretest) | Rotarod Test 24h/pretest (%) Velocity (rat model of pMACO; 24h relative to pretest) |
| --- | --- | --- | --- | --- | --- | --- | --- | --- | --- | --- |
| CCCCCCCCCCCC(=O)N[C@@H](CCC(=O)NCCOCCOCC(=O)NCCCC[C@H](NC(=O)[C@H](Cc1c[nH]cn1)NC(=O)[C@H](C)NC(=O)[C@H](Cc1ccccc1)NC(=O)[C@H](Cc1ccc(O)cc1)NC(=O)[C@@H](NC(=O)[C@H](C)NC(=O)[C@H](CCC(=O)O)NC(=O)[C@H](CCC(=O)O)NC(=O)[C@H](CC(=O)O)NC(=O)/C=C/C(=O)O)C(C)C)C(=O)N[C@@H](CC(=O)O)C(=O)N[C@H](C(=O)N[C@H](C(=O)N[C@@H](Cc1c[nH]c2ccccc12)C(=O)O)[C@@H](C)CC)C(C)C)C(=O)O [BX229-Na] (Fumaroyl-DEEAVYFAHK([AEEA-γGlu-Lauroyl])DVIW-OH) | 1103 ± 582 | 1334 ± 665 | higher | higher |  |  |  |  |  |  |
| CC[C@H](C)[C@H](NC(=O)[C@H](CC(=O)O)NC(=O)[C@H](CCCCNC(=O)COCCOCCNC(=O)COCCOCCNC(=O)CC[C@H](NC(=O)CCCCCCCCCCCCCCCCC(=O)O)C(=O)O)NC(=O)[C@H](Cc1c[nH]cn1)NC(=O)[C@H](C)NC(=O)[C@H](Cc1ccccc1)NC(=O)[C@H](Cc1ccc(O)cc1)NC(=O)[C@@H](NC(=O)[C@H](C)NC(=O)[C@H](CCC(=O)O)NC(=O)[C@H](CCC(=O)O)NC(=O)[C@H](CC(=O)O)NC(=O)/C=C/C(=O)O)C(C)C)C(=O)N[C@H](C(=O)N[C@@H](Cc1c[nH]c2ccccc12)C(=O)O)[C@@H](C)CC [BX-34] (Fumaroyl-DEEAVYFAHK([AEEA-AEEA-γGlu-C18 diacid])DIIW-OH) |  |  |  |  | 49.60%±49.48% | 65.5%±29.94% | 62.27%±34.12% | 28.25%±44.00% | 38.34%±38.08% | 39.09%±35.03% |
